Data published in US20020090352A1, “Compositions and methods for use in modulating immune system function” (priority 2000, published 2002).
Peptide text beside a SMILES is read from it. * marks the point of attachment. Cbz = O=C(OCc1ccccc1)*; CH2F = FC*

Legend:
[1] = system: immature LC (Langerhans cells); assay: Apoptosis of immature LC, flow cytometry of PI stained nuclei (sub 2N particles) / annexin V; format: cell-based, human; details: for percentage of apoptotic (<2N) particles: Cmpd. II 1 μM, Cmpd. VIII 1 μM, Z-Vad 50 μM, TNFα 10 ng/ml, CD40L coculture
[2] = system: immature LC (Langerhans cells); assay: Survival of immature LC, viable cell count with trypan blue exclusion; details: 1000 nM tRA; Compound II 1000 nM, Z-Vad-fmk 50 nM

With `COC(=O)C[C@H](NC(=O)[C@H](C)NC(=O)[C@@H](NC(=O)OCc1ccccc1)C(C)C)C(=O)CF` [Z-Vad-fmk, reference compound] (Cbz-Val-Ala-Asp(OMe)-CH2F) the “percentage of apoptotic (<2N) particles” value ([1]; agent + Cmpd. I 1 μM) was 9 ± 7%, the “percentage of apoptotic (<2N) particles” value ([1]; agent + Compound I 100 nM + SR11237 100 nM) was 11 ± 4% and the “percentage of apoptotic (<2N) particles” value ([1]; agent + tRA 1 μM) was 9 ± 4%. The “percentage of apoptotic (<2N) particles” value ([1]; agent alone (column 0)) was “≦5%”, the “inhibition of retinoid-induced apoptosis / cell death of immature LC” value ([1]; result in words) was “blocked” and the “inhibition of tRA mortality” value [2] was greater than 80%.
